Measured values as given in US20020110838A1, “Methods for assessing muscle protein wasting and therapeutics therefor” (priority 2000, published 2002).
“Also recorded” adds a separate entry of the source. Where a SMILES comes first, the peptide text is derived from it. The star is where a group is joined. Cbz = O=C(OCc1ccccc1)*

Tests used:
L6 muscle cells [1] = assay: Apoptosis by Death ELISA / DNA fragmentation in L6 muscle cells; assay type: cell-based, rat; settings: cultured L6 muscle cells, Death ELISA assay
caspase 3 = assay: Caspase 3 activation in L6 muscle cells (immunoblot); assay type: cell-based, rat; settings: FIG. 4
Excerpt: The caspase-specific proteins were separated by SDS-PAGE and visualized by immunoblotting with polyclonal antibodies prepared in response to the N-terminus of caspase 3.
Subsequently, proteins were separated and subjected to Western blot analysis using affinity-purified, polyclonal antibodies against the carboxy-terminus of actin (Sigma St. Louis, Mo.).

L6 muscle cells [2] = assay: Degradation of endogenous proteins in cell extracts (release of free tyrosine); assay type: cell-based, rat; settings: 50 nM staurosporine 3 h; extracts 37° C. 3 h; exogenous ATP added
Experimental: L6 muscle cells were treated as marked, and lysates were incubated at 37° C. for 3 hours in the presence or absence of ATP (2 mM). Degradation of endogenous protein was monitored by measuring release of acid-soluble tyrosine from cell protein.
With this method, protein degradation in extracts of control cells was slightly less than that in extracts from staurosporine-treated cells. However, the 3 hour incubation at 37° C. could limit ATP and impair activity of the ubiquitin-proteasome system.
Protein degradation in cell extracts was assessed by measuring the net release of free tyrosine because muscles neither synthesizes nor degrades this amino acid (18,19). For 3 hours, 50 μg of cell extract proteins were incubated at 37° C. in 0.1 ml of reaction buffer (20 mM Tris (pH 7.6), 2 mM DTT, 10 mM MgCl2, 100 mM KCl, 5% glycerol) with or without 2 MM ATP.
Trichloroacetic acid (10% final concentration) was added and the amount of free tyrosine released from proteins was measured spectrofluorometrically. Alternatively, total cell protein can be labeled by growth in the presence of one or more radioactive amino acids, e.g., ^14C-labeled or ^3H-labeled, and solubilization of radioactive label can be measured with the use of liquid scintillation counting.

14 kDa actin fragment [3] = assay: Serum starvation-induced actin cleavage in L6 muscle cells; assay type: cell-based, rat; settings: for serum starvation-induced actin cleavage: serum-starved L6 cells, 10 nM hormone added
Experimental: Physiological conditions trigger caspase 3-mediated actin cleavage . To examine whether a catabolic condition that is known to accelerate protein degradation in muscle cells also involves actin cleavage, L6 muscle cells were activated by 24 h of serum starvation (0.5% FBS) and cell lysates were prepared. […] Additional evidence for involvement of apoptosis-associated pathways was obtained by activating L6 cells using the serum starvation procedure and then adding insulin or IGF I because either hormone can prevent serum starvation induced apoptosis (24,25).

14 kDa actin fragment [4] = assay: Actin cleavage in L6 cell extracts incubated at 37° C. (immunoblot of 14 kDa actin fragment); assay type: biochemical, rat
Experimental: The cell extracts were incubated at 37° C. for various times before proteins were separated and subjected to Western blot analysis using commercially available, affinity-purified, polyclonal antibodies directed against the carboxy-terminus of actin.
To support this conclusion, we incubated lysates of L6 muscle cells at 37° C. with recombinant caspase 3 and then used Western blotting and detected the appearance of the actin fragment.
To test for involvement of the proteasome, we added MG132, an inhibitor of proteasome activity (ProScript, Inc. Cambridge, Mass.), and ATP to cell extracts before the 3 hr incubation at 37° C..
L6 muscles cells were washed and collected in ice cold PBS. Cells were swelled in hypotonic buffer (5 mM Tris pH 8.0, 1 mM 2-mercaptoethanol, 1% glycerol, 1 mM EDTA, 1 mM EGTA containing 0.1 mM phenylmethanesulfonyl fluoride (PMSF), leupeptin (5 μg/ml) and aprotinin (5 μg/ml) on ice for 30 minutes, and the cells were then gently homogenized with twenty strokes of a dounce homogenizer, with the materials being kept on ice. Homogenates were centrifuged at 3500 rpm (about 2000×g) for 10 minutes to remove nuclei and cell debris.
To assess for proteolytic cleavage of actin, extracts (20 μg of total protein) were incubated in 20 μl reaction volumes containing 25 mM Hepes (pH 7.5), 5 mM EDTA, 5 mM DTT for 3 h at 37° C. Reactions were terminated by adding Laemmli sample buffer, proteins were separated by SDS-PAGE, and immunoblot detection of actin fragments was carried out with an anti-actin antibody (Sigma).
The proteins were then transferred to ECL hybond membranes, and blots were incubated with anti-actin antibodies (1:500 dilution) in 5% milk in TTBS for 2 hours at 37° C. Bound primary antibodies were detected with goat anti-rabbit IgG antibody conjugated with HRRP and analyzed with ECL Detection Kit.

epitrochlearis muscles = assay: Protein degradation in incubated epitrochlearis muscles; set-up: species or system rat; settings: epitrochlearis muscles in Krebs-Henseleit bicarbonate buffer with vs without inhibitor
Experimental: Rats were treated with streptozotocin and compared to pair-fed, rats injected with saline as described (4,26). Crude muscle lysates were isolated from acutely diabetic and control rats and examined for the presence of the 14 kDa actin fragment. A significant amount of this actin fragment was present in the muscle of diabetic rats compared to results from control rats. Finally, epitrochlearis muscles were incubated in Krebs-Henseleit bicarbonate buffer with or without the addition of the cell-permeable inhibitor of caspase 3, Ac-DEVD-Cho.

14 kDa actin fragment [5] = assay: 14 kDa actin peptide in intact L6 cells, measured after lysis; assay type: cell-based, rat; set-up: 14 kDa actin peptide in intact L6 cells activated with staurosporine and treated with proteasome inhibitor: dose or concentration left out as unconfirmed
Experimental: Actin cleavage was measured in lysates immediately after lysis.
This fragment (and others) are then rapidly degraded by the ubiquitin-proteasome system. […] The cells were then lysed and tested for the presence of the 14 kDa actin peptide.

CN[C@@H]1C[C@H]2O[C@@](C)([C@@H]1OC)n1c3ccccc3c3c4c(c5c6ccccc6n2c5c31)C(=O)NC4 [staurosporine]
activation of apoptosis (L6 muscle cells [1]): activates apoptosis | induction of caspase 3 activity (caspase 3): induces caspase 3 activity | tyrosine release by extracts from staurosporine-treated cells vs control cell extracts (L6 muscle cells [2]): overall protein degradation is increased; also recorded: significantly higher

insulin
serum starvation-induced actin cleavage (14 kDa actin fragment [3]): effectively blocked

Nc1ncnc2c1ncn2[C@@H]1O[C@H](COP(=O)(O)OP(=O)(O)OP(=O)(O)O)[C@@H](O)[C@H]1O [ATP]
amount of the 14 kDa peptide vs same extract without added ATP (14 kDa actin fragment [4]; 2 mM ATP added to extracts from staurosporine-treated cells, 3 hr, 37° C.): significantly reduced

Ac-DEVD-Cho
appearance of the 14 kDa actin fragment with caspase 3 inhibitor (14 kDa actin fragment [4]; extracts of L6 cells treated with 10 nM staurosporine or serum starvation, 5 μM inhibitor for 3 hr): blocked the appearance of the actin fragment | accumulation of the 14 kDa actin fragment after serum starvation (14 kDa actin fragment [3]; 24 h serum starvation (0.5% FBS), inhibitor added to cell lysate during incubation): blocked the accumulation | reduction of the rate of muscle protein degradation (epitrochlearis muscles): 30%

IGF I
serum starvation-induced actin cleavage (14 kDa actin fragment [3]): effectively blocked

Arg-Ala
amount of the 14 kDa actin fragment vs incubation with ATP alone (14 kDa actin fragment [4]; extracts of staurosporine-exposed L6 cells, 37° C., dipeptide (2 mM) and ATP): greater amount

CC(C)C[C@@H](C=O)NC(=O)[C@H](CC(C)C)NC(=O)[C@H](CC(C)C)NC(=O)OCc1ccccc1 [MG132] (Cbz-Leu-Leu-Leu-aldehyde)
amount of the 14 kDa actin peptide with proteasome inhibitor in presence of ATP (14 kDa actin fragment [4]; MG132 and ATP added to cell extracts before 3 hr incubation at 37° C.): greater amounts | 14 kDa actin peptide in intact L6 cells activated with staurosporine and treated with proteasome inhibitor (14 kDa actin fragment [5]; 24 hr staurosporine plus MG 132): readily detected | 14 kDa actin fragment in intact L6 cells, agent alone (14 kDa actin fragment [5]; L6 cells incubated 24 hr with single agent, then lysed): only a small amount
